Measured values as given in patent US4968826A, “Platinum complexes and antitumor agents containing them as an active ingredient” (Shionogi & Co., Ltd., priority 1989, dated 1990).

Columns and labels:
[1] = test system: Colon tumor 38; test: Antitumor activity against Colon tumor 38 transplanted in mice; type: in vivo, BDF1 mice; settings: for chemotherapy index (CI): from ED50 and LD50, the greater, the more effective; for ED 50 (dose of 50% growth inhibition in the mean tumor size): i.v. on next day and 8th day after
Description: Antitumor activity against Colon tumor 38:
A tumor segment of Colon tumor 38 was transplanted beneath the dorsal skin of BDF1 mice (6 to 10 mice in each group), and the test compounds were intravenously administered on the next day and on the 8th day after the next day, respectively. As solvent for injection, 0.9% physiological saline was used.
Test Compounds A, C, D and E were same as those used in Experiment 1.

[2] = test system: L1210/CDDP; test: Antitumor effect (ILS) in mice inoculated i.p. with cisplatin-resistant murine leukemia L1210/CDDP; type: in vivo, murine leukemia cells in BDF1 mice; settings: for Number of mice surviving 30 days or longer: A: of 6 mice; for chemotherapy index (CI): from ILS30 and ILSmax, the greater, the more effective; for ILS30 (dose of achieving 30% ILS) / ILSmax (dose of achieving the maximum ILS): i.p.
Description: (§1) Antitumor activities against murine leukemia cells (L1210) and cisplatin-resistant murine leukemia cells (L1210/CDDP):
(§2) Murine leukemia L1210 (or L1210/CDDP) ascitic cells (1×10^5 cells) (5×10^5 cells for L1210/CDDP) were intraperitoneally inoculated to BDF1 mice (each group consisting 6~10 mice), and on the next day a predetermined amount of the test compound was intraperitoneally administered. 0.9% physiological saline was used as a solvent for injection.
(§3) From the average survival days (a) in each test group and those (b) of the non-treated control group, the increase of lifespan (ILS) was calculated according to the following formula. [formula]
(§4) As compared with the non-treated control group, the dose of achieving 30% ILS (ILS30) and the dose of achieving the maximum ILS (ILSmax) were obtained, from which the chemotherapy index (CI) was calculated. [formula]

[3] = test system: L1210; test: Antitumor effect (ILS) in mice inoculated i.p. with murine leukemia L1210; type: in vivo, murine leukemia cells in BDF1 mice; settings: for Number of mice survived 30 days or longer: of 7 mice; for chemotherapy index (CI): from ILS30 and ILSmax, the greater, the more effective; for ILS30 (dose of achieving 30% ILS) / ILS max (dose of achieving the maximum ILS): i.p.
Description: as §1, §2, §3, §4

[4] = test system: murine nucleated bone marrow cells; test: Hemotoxicity: nucleated bone marrow cell count (NBMC) in femora; type: in vivo, male CDF1 mice; settings: 4 days after
Description: (§5) Influence against murine nucleated bone marrow cell count, megakaryocyte count and platelet count in peripheral blood:
(§6) After a single intravenous administration of test compounds to male CDF1 mice (7 weeks old), hemotoxicity was investigated by counting the nucleated bone marrow cell in femora (NBMC), megakaryocyte (MEG) and platelet (PLT) in peripheral blood. Measuring timing was taken when the three indices reached the minimal value, namely 4 days after administration for NBMC, and 7 days after for MEG and PLT.
(§7) Changes in the counts of nucleated bone marrow cells (NBMC), megakaryocytes (MEG) and platelets (PLT) in peripheral blood induced by administration of the test compounds are shown as hemotoxicity, expressed as the ratio of the value of each index in the test group to that of the non-treated conrol group as a percentage.

[5] = test system: kidneys; test: Evaluation of nephrotoxicity in mice; type: in vivo, male CDF1 mice; settings: for Creatinine / Urea nitrogen: mouse, in vivo, iv
Procedure: Evaluation of nephrotoxicity in mice:
After a single intravenous administration of Test Compound A to male CDF1 mice (6 weeks old) at a rate of 160 or 320 mg/kg*, the levels of creatinine and urea nitrogen in plasma were measured. The mice were presented for pathological examination of kidneys four days after administration. (*: 320 mg/kg would be a lethal dose if the observation period was further extended.)

[6] = test system: megakaryocytes; test: Hemotoxicity: megakaryocyte count (MEG); type: in vivo, male CDF1 mice; settings: 7 days after
Description: as §5, §6, §7

[7] = test system: platelets in peripheral blood; test: Hemotoxicity: platelet count (PLT) in peripheral blood; type: in vivo, male CDF1 mice; settings: 7 days after
Description: as §5, §6, §7

[8] = 30.0 mg/kg (1/6 LD90) single i.v.

Compound	chemotherapy index (CI) [1]	ED 50 (dose of 50% growth inhibition in the mean tumor size) [1]	increase of lifespan (ILS) ([2]; 5 mg/kg i.p.) [%]	increase of lifespan (ILS) ([2]; 10 mg/kg i.p.) [%]	increase of lifespan (ILS) ([2]; 20 mg/kg i.p.) [%]	increase of lifespan (ILS) ([2]; 40 mg/kg i.p.) [%]	Number of mice surviving 30 days or longer ([2]; 40 mg/kg i.p., B: of 7 mice)	increase of lifespan (ILS) ([2]; 80 mg/kg i.p.) [%]	Number of mice surviving 30 days or longer ([2]; 80 mg/kg i.p., B: of 7 mice)	increase of lifespan (ILS) ([2]; 160 mg/kg i.p.) [%]	chemotherapy index (CI) [2]	ILS30 (dose of achieving 30% ILS) [2]	ILSmax (dose of achieving the maximum ILS) [2] [mg/kg]	increase of lifespan (ILS) ([3]; 10 mg/kg i.p.) [%]	increase of lifespan (ILS) ([3]; 20 mg/kg i.p.) [%]	increase of lifespan (ILS) ([3]; 40 mg/kg i.p.) [%]	increase of lifespan (ILS) ([3]; 80 mg/kg i.p.) [%]	ILS30 (dose of achieving 30% ILS) [3] [mg/kg]	ILS max (dose of achieving the maximum ILS) [3] [mg/kg]	Solubility in water [mg/mL]	other results
(1R,2R-Diaminocyclohexane)[2-hydroxy-2-methylbutyrato(2-)-O^1, O^2 -]platinum (II) [Test Compound C]	4.3	106.2 mg/kg																			
(1R,2R-Diaminocyclohexane)[1-hydroxy-1-cyclopropanecarboxylato(2-)-O^1,O^2 ]platinum (II) [Test Compound B]			6	14	4	> 93	3	> 179	6	-16	3.3	24 mg/kg	80	10	21	22	66	45	160	30	increase of lifespan (ILS) ([3]; 160 mg/kg i.p.): > 83%; Number of mice survived 30 days or longer ([3]; 160 mg/kg i.p.): 2; chemotherapy index (CI) [3]: 3.6
N.N.[Cl][Pt][Cl] [Test Compound D, Cisplatin, reference compound]		18.3 mg/kg										ineffective						2.7	10		
(1R,2R-Diaminocyclohexane)[1-hydroxy-1-cyclopentanecarboxylato(2-)-O^1,O^2 ]platinum (II) [Test Compound A]	2.7	164.9 mg/kg	1	5	> 50	> 56	2	> 110	4	1	5.5	14.5 mg/kg	80	16	19	37	> 81	31	160	> 500	Number of mice surviving 30 days or longer ([2]; 20 mg/kg i.p.): 2; increase of lifespan (ILS) ([3]; 5 mg/kg i.p.): 10%; Number of mice survived 30 days or longer ([3]; 40 mg/kg i.p.): 1; Number of mice survived 30 days or longer ([3]; 80 mg/kg i.p.): 3; increase of lifespan (ILS) ([3]; 160 mg/kg i.p.): > 168%; Number of mice survived 30 days or longer ([3]; 160 mg/kg i.p.): 1; increase of lifespan (ILS) ([3]; 320 mg/kg i.p.): 14%; chemotherapy index (CI) [3]: 5.2; Hemotoxicity NBMC (ratio to non-treated control) ([4]; 31.0 mg/kg single i.v.): 108 percentage; Hemotoxicity NBMC (ratio to non-treated control) ([4]; 62.0 mg/kg (1/5 LD90) single i.v.): 87 percentage; Creatinine ([5]; 160 mg/kg): 0.26; Urea nitrogen ([5]; 160 mg/kg): 22.6 mg/dL; Creatinine ([5]; 320 mg/kg): 0.27; Urea nitrogen ([5]; 320 mg/kg): 23.3 mg/dL; lethal dose ([5]; single i.v., male CDF1 mice, if the observation period was further extended): 320 mg/kg
N.N.O=C([O-])C1(C(=O)[O-])CCC1.[Pt+2] [Test Compound E, Carboplatin]		Ineffective										ineffective								16	Hemotoxicity NBMC (ratio to non-treated control) [4, 8]: 78 percentage; Hemotoxicity NBMC (ratio to non-treated control) ([4]; 60.0 mg/kg single i.v.): 75 percentage; Hemotoxicity NBMC (ratio to non-treated control) ([4]; 120.0 mg/kg single i.v.): 28 percentage; Hemotoxicity MEG (ratio to non-treated control) [6, 8]: 60 percentage; Hemotoxicity MEG (ratio to non-treated control) ([6]; 60.0 mg/kg single i.v.): 45 percentage; Hemotoxicity MEG (ratio to non-treated control) ([6]; 120.0 mg/kg single i.v.): 8 percentage; Hemotoxicity PLT (ratio to non-treated control) [7, 8]: 89 percentage; Hemotoxicity PLT (ratio to non-treated control) ([7]; 60.0 mg/kg single i.v.): 65 percentage; Hemotoxicity PLT (ratio to non-treated control) ([7]; 120.0 mg/kg single i.v.): 35 percentage
